Reference: ChEMBL document CHEMBL4507263, “Data for DCP probe BAY-474” (2021)

Columns and labels:
[1] = molecular target: Serine/threonine-protein kinase MRCK alpha (Homo sapiens) (UniProt Q5VT25); assay: MRCKalpha (h) Millipore kinase activity assay; conditions: Compound concentration 1.0 uM
[2] = molecular target: Alpha-1A adrenergic receptor (Homo sapiens) (UniProt P35348); conditions: Compound concentration 10.0 uM
[3] = molecular target: Ribosomal protein S6 kinase alpha-5 (Homo sapiens) (UniProt O75582); assay: MSK1 (h) Millipore kinase activity assay; conditions: Compound concentration 1.0 uM
[4] = molecular target: Cytoplasmic tyrosine-protein kinase BMX (Homo sapiens) (UniProt P51813); assay: Bmx (h) Millipore kinase activity assay; conditions: Compound concentration 1.0 uM
Target sequence in this assay (P51813 whole entry, looked up): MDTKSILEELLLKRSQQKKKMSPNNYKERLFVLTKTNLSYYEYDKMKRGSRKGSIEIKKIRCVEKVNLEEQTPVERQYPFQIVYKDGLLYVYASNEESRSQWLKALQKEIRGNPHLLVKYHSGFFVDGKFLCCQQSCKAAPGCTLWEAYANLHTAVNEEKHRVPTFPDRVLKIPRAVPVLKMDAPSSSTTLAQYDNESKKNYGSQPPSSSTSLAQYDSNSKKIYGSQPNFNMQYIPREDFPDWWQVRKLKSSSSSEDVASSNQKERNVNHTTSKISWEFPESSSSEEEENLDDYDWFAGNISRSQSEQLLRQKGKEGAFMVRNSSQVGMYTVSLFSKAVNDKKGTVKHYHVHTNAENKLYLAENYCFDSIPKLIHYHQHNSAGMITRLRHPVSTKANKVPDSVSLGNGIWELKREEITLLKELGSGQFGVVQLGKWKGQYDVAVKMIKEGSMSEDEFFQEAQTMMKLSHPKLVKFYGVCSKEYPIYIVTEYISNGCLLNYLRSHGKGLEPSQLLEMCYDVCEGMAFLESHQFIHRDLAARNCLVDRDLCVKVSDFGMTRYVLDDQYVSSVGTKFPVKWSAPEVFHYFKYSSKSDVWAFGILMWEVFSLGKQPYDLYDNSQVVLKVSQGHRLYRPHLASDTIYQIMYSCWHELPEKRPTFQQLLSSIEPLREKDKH

[5] = molecular target: Testis-specific serine/threonine-protein kinase 1 (Homo sapiens) (UniProt Q9BXA7); assay: TSSK1 (h) Millipore kinase activity assay; conditions: Compound concentration 1.0 uM
[6] = molecular target: B1 bradykinin receptor (Homo sapiens) (UniProt P46663); assay: Inhibition of Bradykinin B1 at 10 µM in the Eurofins-Panlabs radioligand binding assay (Eurofins_assay_212510); conditions: Compound concentration 10.0 uM
[7] = molecular target: Dual specificity tyrosine-phosphorylation-regulated kinase 2 (Homo sapiens) (UniProt Q92630); assay: DYRK2 (h) Millipore kinase activity assay; conditions: Compound concentration 1.0 uM
[8] = molecular target: Mitogen-activated protein kinase 12 (Homo sapiens) (UniProt P53778); assay: SAPK3 (h) Millipore kinase activity assay; conditions: Compound concentration 1.0 uM
[9] = molecular target: Alpha-1A adrenergic receptor (Homo sapiens) (UniProt P35348); conditions: Rattus norvegicus; Compound concentration 10.0 uM
[10] = molecular target: Glycogen synthase kinase-3 alpha (Homo sapiens) (UniProt P49840); assay: GSK3alpha (h) Millipore kinase activity assay; conditions: Compound concentration 1.0 uM
[11] = molecular target: Cysteinyl leukotriene receptor 1 (Homo sapiens) (UniProt Q9Y271); assay: Inhibition of Leukotriene, Cysteinyl CysLT1 at 10 µM in the Eurofins-Panlabs radioligand binding assay (Eurofins_assay_250460); design: ligand concentration 0.3 nM, non-specific ligand with concentration 0.3 µM Leukotriene D4, incubation time 30 min, incubation temperature 25 °C; conditions: Compound concentration 10.0 uM
[12] = molecular target: T1, D(4) dopamine receptor (Homo sapiens) (UniProt P21917); assay: Inhibition of Dopamine D4.2 at 10 µM in the Eurofins-Panlabs radioligand binding assay (Eurofins_assay_219900); design: ligand concentration 0.5 nM; conditions: Compound concentration 10.0 uM
T1 sequence (whole entry): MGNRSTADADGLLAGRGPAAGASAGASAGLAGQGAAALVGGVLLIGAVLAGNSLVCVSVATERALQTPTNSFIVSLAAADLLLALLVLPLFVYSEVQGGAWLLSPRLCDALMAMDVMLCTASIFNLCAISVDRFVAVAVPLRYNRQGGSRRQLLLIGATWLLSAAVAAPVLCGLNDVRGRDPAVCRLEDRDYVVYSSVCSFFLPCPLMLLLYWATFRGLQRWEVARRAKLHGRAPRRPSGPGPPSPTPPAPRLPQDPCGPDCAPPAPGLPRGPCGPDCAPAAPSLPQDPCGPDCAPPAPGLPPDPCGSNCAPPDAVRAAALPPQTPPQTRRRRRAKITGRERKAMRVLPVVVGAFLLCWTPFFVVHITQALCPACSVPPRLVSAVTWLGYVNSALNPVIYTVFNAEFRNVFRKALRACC

[13] = molecular target: Beta-1 adrenergic receptor (Homo sapiens) (UniProt P08588); conditions: Compound concentration 10.0 uM
[14] = molecular target: Serine/threonine-protein kinase SIK2 (Homo sapiens) (UniProt Q9H0K1); conditions: Compound concentration 1000.0 nM
[15] = molecular target: Serine/threonine-protein kinase N2 (Homo sapiens) (UniProt Q16513); conditions: Compound concentration 1000.0 nM
[16] = molecular target: Serine/threonine-protein kinase Chk1 (Homo sapiens) (UniProt O14757); conditions: Compound concentration 1000.0 nM
[17] = molecular target: Serine/threonine-protein kinase DCLK2 (Homo sapiens) (UniProt Q8N568); conditions: Compound concentration 1000.0 nM
[18] = molecular target: Tyrosine-protein kinase Lyn (Homo sapiens) (UniProt P07948); conditions: Compound concentration 1000.0 nM
[19] = molecular target: Hepatocyte growth factor receptor (Homo sapiens, UniProt P08581); conditions: Compound concentration 1000.0 nM
[20] = molecular target: Ephrin type-B receptor 3 (Homo sapiens) (UniProt P54753); conditions: Compound concentration 1000.0 nM
[21] = molecular target: Cytoplasmic tyrosine-protein kinase BMX (Homo sapiens) (UniProt P51813); conditions: Compound concentration 1000.0 nM
Target sequence in this assay (P51813 whole entry): as the sequence (P51813 whole entry, looked up) above

[22] = molecular target: Dual serine/threonine and tyrosine protein kinase (Homo sapiens) (UniProt Q6XUX3); conditions: Compound concentration 1000.0 nM
[23] = molecular target: Activin receptor type-2A (Homo sapiens) (UniProt P27037); conditions: Compound concentration 1000.0 nM
[24] = tested on: Receptor-type tyrosine-protein kinase FLT3 (Homo sapiens), P36888 [UNDEFINED MUTATION]; conditions: Compound concentration 1000.0 nM
[25] = molecular target: Mitogen-activated protein kinase kinase kinase kinase 1 (Homo sapiens) (UniProt Q92918); conditions: Compound concentration 1000.0 nM
[26] = molecular target: Tyrosine-protein kinase FRK (Homo sapiens) (UniProt P42685); conditions: Compound concentration 1000.0 nM
[27] = molecular target: Interleukin-1 receptor-associated kinase 4 (Homo sapiens) (UniProt Q9NWZ3); conditions: Compound concentration 1000.0 nM
[28] = molecular target: Serine/threonine-protein kinase PAK 3 (Homo sapiens) (UniProt O75914); conditions: Compound concentration 1000.0 nM
[29] = molecular target: cAMP-dependent protein kinase catalytic subunit beta (Homo sapiens) (UniProt P22694); conditions: Compound concentration 1000.0 nM
[30] = molecular target: Cyclin-dependent kinase 15 (Homo sapiens) (UniProt Q96Q40); conditions: Compound concentration 1000.0 nM
[31] = molecular target: Serine/threonine-protein kinase tousled-like 2 (Homo sapiens) (UniProt Q86UE8); conditions: Compound concentration 1000.0 nM
[32] = molecular target: Dual specificity protein kinase TTK (Homo sapiens) (UniProt P33981); conditions: Compound concentration 1000.0 nM
[33] = molecular target: cAMP-dependent protein kinase catalytic subunit PRKX (Homo sapiens) (UniProt P51817); conditions: Compound concentration 1000.0 nM
[34] = molecular target: Protein kinase C epsilon type (Homo sapiens) (UniProt Q02156); conditions: Compound concentration 1000.0 nM
[35] = molecular target: Mitogen-activated protein kinase 11 (Homo sapiens) (UniProt Q15759); conditions: Compound concentration 1000.0 nM
[36] = molecular target: Cyclin-dependent kinase-like 2 (Homo sapiens) (UniProt Q92772); conditions: Compound concentration 1000.0 nM
[37] = molecular target: Casein kinase I isoform gamma-2 (Homo sapiens) (UniProt P78368); conditions: Compound concentration 1000.0 nM
[38] = molecular target: Tyrosine-protein kinase receptor Tie-1 (Homo sapiens) (UniProt P35590); conditions: Compound concentration 1000.0 nM
Chain of Tyrosine-protein kinase receptor Tie-1 (Homo sapiens) (P35590 whole entry): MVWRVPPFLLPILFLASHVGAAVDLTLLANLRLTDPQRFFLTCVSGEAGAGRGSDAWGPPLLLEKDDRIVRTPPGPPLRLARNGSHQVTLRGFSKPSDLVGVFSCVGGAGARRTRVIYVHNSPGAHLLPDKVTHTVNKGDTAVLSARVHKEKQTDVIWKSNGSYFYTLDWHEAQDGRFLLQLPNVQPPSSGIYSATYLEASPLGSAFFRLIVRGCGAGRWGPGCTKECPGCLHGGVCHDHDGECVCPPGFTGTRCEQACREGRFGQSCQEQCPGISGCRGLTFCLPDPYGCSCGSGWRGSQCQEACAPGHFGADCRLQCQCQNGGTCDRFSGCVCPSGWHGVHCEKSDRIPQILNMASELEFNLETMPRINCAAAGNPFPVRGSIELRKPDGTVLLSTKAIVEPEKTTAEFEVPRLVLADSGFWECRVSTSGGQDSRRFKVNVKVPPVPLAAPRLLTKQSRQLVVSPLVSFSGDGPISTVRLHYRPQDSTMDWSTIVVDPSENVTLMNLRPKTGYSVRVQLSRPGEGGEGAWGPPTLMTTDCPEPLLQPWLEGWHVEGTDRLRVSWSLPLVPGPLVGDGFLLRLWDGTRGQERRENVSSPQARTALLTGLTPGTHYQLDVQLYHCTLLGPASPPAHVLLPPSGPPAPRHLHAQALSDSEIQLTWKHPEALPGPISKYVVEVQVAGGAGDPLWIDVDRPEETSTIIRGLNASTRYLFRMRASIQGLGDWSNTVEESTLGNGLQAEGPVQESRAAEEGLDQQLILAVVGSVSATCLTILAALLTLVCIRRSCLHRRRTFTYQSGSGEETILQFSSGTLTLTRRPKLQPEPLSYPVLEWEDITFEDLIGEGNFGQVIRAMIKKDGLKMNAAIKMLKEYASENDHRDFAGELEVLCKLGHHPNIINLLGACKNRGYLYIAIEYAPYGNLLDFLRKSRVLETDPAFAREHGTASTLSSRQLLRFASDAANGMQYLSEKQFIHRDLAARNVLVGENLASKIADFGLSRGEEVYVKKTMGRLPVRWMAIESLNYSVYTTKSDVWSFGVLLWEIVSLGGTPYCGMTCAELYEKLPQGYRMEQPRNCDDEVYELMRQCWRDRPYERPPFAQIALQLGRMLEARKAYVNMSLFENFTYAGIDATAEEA

Chain of Alpha-1A adrenergic receptor (Homo sapiens) (P35348 whole entry): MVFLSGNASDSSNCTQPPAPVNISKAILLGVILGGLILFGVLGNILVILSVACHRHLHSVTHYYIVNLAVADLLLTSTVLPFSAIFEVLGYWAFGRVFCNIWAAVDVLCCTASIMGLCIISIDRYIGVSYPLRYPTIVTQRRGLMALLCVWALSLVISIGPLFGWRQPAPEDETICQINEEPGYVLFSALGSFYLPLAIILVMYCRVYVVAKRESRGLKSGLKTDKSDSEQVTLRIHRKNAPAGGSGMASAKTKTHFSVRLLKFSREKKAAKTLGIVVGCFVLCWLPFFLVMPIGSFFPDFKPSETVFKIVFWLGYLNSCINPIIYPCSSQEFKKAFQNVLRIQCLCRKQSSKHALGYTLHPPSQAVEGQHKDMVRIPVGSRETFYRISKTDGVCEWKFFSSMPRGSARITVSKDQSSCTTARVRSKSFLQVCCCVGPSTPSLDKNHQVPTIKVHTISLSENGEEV
Chain of B1 bradykinin receptor (Homo sapiens) (P46663 whole entry): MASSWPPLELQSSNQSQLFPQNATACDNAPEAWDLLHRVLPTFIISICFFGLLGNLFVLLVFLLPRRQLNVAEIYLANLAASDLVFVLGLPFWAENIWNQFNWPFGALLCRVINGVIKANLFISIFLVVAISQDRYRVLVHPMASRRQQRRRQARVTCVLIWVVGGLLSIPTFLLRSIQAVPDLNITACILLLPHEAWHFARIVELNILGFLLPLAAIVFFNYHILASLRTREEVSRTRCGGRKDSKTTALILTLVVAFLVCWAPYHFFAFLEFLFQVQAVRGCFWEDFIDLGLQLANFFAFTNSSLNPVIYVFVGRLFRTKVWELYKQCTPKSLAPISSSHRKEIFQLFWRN
Chain of Cysteinyl leukotriene receptor 1 (Homo sapiens) (Q9Y271 whole entry): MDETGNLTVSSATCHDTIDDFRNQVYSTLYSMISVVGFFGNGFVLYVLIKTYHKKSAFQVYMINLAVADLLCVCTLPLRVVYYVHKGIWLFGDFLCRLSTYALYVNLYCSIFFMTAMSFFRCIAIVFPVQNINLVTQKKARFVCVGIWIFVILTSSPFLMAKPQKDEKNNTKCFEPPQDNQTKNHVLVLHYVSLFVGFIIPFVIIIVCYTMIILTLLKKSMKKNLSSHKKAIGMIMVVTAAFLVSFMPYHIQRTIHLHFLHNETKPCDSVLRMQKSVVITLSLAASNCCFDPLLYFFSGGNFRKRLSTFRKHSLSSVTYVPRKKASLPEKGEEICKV
Chain of Beta-1 adrenergic receptor (Homo sapiens) (P08588 whole entry, looked up): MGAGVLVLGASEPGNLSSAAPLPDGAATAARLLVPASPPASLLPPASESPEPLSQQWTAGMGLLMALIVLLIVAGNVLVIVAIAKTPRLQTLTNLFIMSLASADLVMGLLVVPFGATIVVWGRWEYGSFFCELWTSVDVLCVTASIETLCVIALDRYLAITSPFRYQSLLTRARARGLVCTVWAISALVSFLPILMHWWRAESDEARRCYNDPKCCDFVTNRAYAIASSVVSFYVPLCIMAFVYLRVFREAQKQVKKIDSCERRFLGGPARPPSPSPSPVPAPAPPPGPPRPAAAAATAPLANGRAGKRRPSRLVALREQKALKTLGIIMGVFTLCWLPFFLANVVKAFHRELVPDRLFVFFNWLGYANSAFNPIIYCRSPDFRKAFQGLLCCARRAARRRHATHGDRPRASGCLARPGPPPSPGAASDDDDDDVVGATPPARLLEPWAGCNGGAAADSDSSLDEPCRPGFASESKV
Chain of Serine/threonine-protein kinase DCLK2 (Homo sapiens) (Q8N568 whole entry): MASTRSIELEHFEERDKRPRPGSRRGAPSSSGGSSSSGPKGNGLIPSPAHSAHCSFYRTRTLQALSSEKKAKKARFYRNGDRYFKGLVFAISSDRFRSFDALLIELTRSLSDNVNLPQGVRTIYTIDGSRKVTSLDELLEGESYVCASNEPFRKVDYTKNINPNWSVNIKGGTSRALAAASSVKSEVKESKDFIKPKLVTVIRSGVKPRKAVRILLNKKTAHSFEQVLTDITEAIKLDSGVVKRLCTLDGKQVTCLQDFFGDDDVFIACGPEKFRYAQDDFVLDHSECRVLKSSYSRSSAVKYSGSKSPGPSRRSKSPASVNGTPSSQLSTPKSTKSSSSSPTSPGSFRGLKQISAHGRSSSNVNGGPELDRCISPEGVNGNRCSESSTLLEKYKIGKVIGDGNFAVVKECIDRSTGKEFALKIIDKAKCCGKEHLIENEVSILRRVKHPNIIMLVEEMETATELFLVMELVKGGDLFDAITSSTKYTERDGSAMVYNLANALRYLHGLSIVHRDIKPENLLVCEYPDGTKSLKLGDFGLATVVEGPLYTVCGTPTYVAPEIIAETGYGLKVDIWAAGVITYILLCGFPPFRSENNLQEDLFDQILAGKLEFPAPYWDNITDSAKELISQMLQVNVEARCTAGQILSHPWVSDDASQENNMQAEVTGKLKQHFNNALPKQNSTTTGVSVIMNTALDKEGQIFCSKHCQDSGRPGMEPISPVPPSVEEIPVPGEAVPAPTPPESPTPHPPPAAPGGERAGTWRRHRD
Chain of Serine/threonine-protein kinase Chk1 (Homo sapiens) (O14757 whole entry): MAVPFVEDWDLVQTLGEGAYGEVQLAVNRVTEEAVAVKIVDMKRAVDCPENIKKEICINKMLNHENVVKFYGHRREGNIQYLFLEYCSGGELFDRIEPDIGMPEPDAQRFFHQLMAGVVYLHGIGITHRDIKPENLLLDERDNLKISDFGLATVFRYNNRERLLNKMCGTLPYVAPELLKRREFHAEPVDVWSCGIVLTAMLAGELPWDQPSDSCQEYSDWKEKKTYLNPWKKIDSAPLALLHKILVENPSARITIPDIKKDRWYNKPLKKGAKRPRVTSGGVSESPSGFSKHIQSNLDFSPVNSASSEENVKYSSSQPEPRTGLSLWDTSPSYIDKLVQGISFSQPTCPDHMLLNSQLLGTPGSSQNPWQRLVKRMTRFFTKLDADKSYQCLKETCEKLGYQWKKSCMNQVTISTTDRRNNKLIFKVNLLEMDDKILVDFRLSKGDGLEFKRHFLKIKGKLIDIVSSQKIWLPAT

In the case of `CC1=C(C#N)C(c2ccc3[nH]nc(C)c3c2)C(C#N)=C(C)N1` [BAY-474], the inhibition [1] is reported as -10%, the inhibition [2] is reported as 15.6% and the inhibition [3] is reported as -1%. The inhibition [4] was -7%, the inhibition [5] was 27% and the inhibition [6] was 6%. The inhibition [7] was -8%, the inhibition [8] was 8% and the inhibition [9] was 1%. For the same compound, the inhibition [10] was -3%, the inhibition [11] was 8% and the inhibition [12] was -2%. It also gave an inhibition [13] of 0%.

In the case of `CC1=C(C#N)[C@@H](c2ccc3[nH]nc(C)c3c2)C(C#N)=C(c2ccc(Cl)cc2)N1` [BAY-827], the residual activity [14] is reported as 100%, the residual activity [15] is reported as 74.6% and the residual activity [16] is reported as 100%. It also gave a residual activity [17] of 97.9%, a residual activity [18] of 96.8% and a residual activity [19] of 17.2%. For the same compound, the residual activity [20] was 100%, the residual activity [21] was 100% and the residual activity [22] was 100%. The residual activity [23] was 100%, the residual activity [24] was 100% and the residual activity [25] was 93.1%. For the same compound, the residual activity [26] was 100%, the residual activity [27] was 100% and the residual activity [28] was 100%. It also gave a residual activity [29] of 81.5%, a residual activity [30] of 75.4% and a residual activity [31] of 100%. It also gave a residual activity [32] of 75.7%, a residual activity [33] of 100% and a residual activity [34] of 100%. The residual activity [35] was 99.8%, the residual activity [36] was 97.9% and the residual activity [37] was 100%. The residual activity [38] was 76.4%.
